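The compound was tested at five concentrations on cells cultured in 96-well plates, with a 48-hour exposure period. At the GI50, growth is halved.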 Calls of active or inactive are those of the source. No stated cut-off is given here; in the data, active = GI50 up to about 1.1 µM and inactive = higher.
Columns and labels:
Test in all cases: NCI-60 cell line screen, 48 h
[1] = system: 786-0
[2] = system: A498
[3] = system: A549
[4] = system: ACHN
[5] = system: BT-549
[6] = system: CAKI-1
[7] = system: CCRF-CEM
[8] = system: COLO 205
[9] = system: DU-145
[10] = system: EKVX
[11] = system: HCC 2998
[12] = system: HCT-116
[13] = system: HCT-15
[14] = system: HL-60
[15] = system: HOP-62
[16] = system: HOP-92
[17] = system: HT-29
[18] = system: Hs-578T
[19] = system: IGROV-1
[20] = system: K562
[21] = system: KM12
[22] = system: LOX IMVI
[23] = system: M14
[24] = system: MCF7
[25] = system: MDA-MB-231
[26] = system: MDA-MB-435
[27] = system: MDA-N
[28] = system: MOLT-4
[29] = system: Malme-3M
[30] = system: NCI-H226
[31] = system: NCI-H23
[32] = system: NCI-H460
[33] = system: NCI/ADR-RES
[34] = system: OVCAR-3
[35] = system: OVCAR-4
[36] = system: OVCAR-5
[37] = system: OVCAR-8
[38] = system: PC-3
[39] = system: RPMI-8226
[40] = system: RXF 393
[41] = system: SF-268
[42] = system: SF-295
[43] = system: SF-539
[44] = system: SK-MEL-28
[45] = system: SK-MEL-2
[46] = system: SK-MEL-5
[47] = system: SK-OV-3
[48] = system: SN12C
[49] = system: SNB-19
[50] = system: SNB-75
[51] = system: SR
[52] = system: SW-620
[53] = system: T47D
[54] = system: TK-10
[55] = system: U-251
[56] = system: UACC-257
[57] = system: UACC-62
[58] = system: UO-31
[59] = system: NCI-H522

Measured: GI50

CCOc1cc2c(cc1O)CC[C@@H]1[C@@H]2CC[C@]2(C)C(OS(=O)OC3CC[C@@H]4[C@H]5CCc6cc(O)c(OCC)cc6[C@@H]5CC[C@@]34C)CC[C@@H]12 (stereo partly drawn)
active: [1] 0.583 µM | [3] 0.689 µM | [7] 466 nM | [12] 577 nM | [14] 0.173 µM | [15] 0.887 µM | [16] 0.363 µM | [20] 0.316 µM | [22] 752 nM | [23] 592 nM | [24] 452 nM | [26] 60.1 nM | [27] 117 nM | [29] 168 nM | [32] 0.581 µM | [33] 441 nM | [34] 313 nM | [42] 0.982 µM | [43] 0.48 µM | [44] 600 nM | [45] 920 nM | [46] 340 nM | [50] 0.51 µM | [51] 182 nM | [52] 0.355 µM | [55] 0.33 µM
507 nM: [13]
inactive: [2] 13.7 µM | [4] 1.88 µM | [5] 1.81 µM | [6] 2.45 µM | [8] 23.1 µM | [9] 1.62 µM | [10] 3.21 µM | [11] 16 µM | [17] 22.6 µM | [18] 3.25 µM | [19] 4.52 µM | [21] 4.59 µM | [25] 4.06 µM | [28] 1.14 µM | [30] 2.49 µM | [31] 1.84 µM | [35] 9.2 µM | [36] 21.4 µM | [37] 1.38 µM | [38] 3.94 µM | [39] 1.63 µM | [40] 1.29 µM | [41] 2.44 µM | [47] 1.16 µM | [48] 1.68 µM | [49] 2.64 µM | [53] 5.66 µM | [54] 19.7 µM | [56] 2.24 µM | [57] 1.19 µM | [58] 5.48 µM

CCOC(=O)c1cc(C2CCN(c3ccccc3)C2=O)c(C(=O)/C=C(/C)O)[nH]1 (stereo not drawn)
51600 nM: [13]
inactive: [1] 54.5 µM | [2] > 100 µM | [3] 93.8 µM | [4] > 100 µM | [5] 61.2 µM | [6] 47.8 µM | [7] 59600 nM | [8] > 100 µM | [9] > 100 µM | [10] 24.7 µM | [11] > 100 µM | [12] 65800 nM | [14] 27.2 µM | [15] > 100 µM | [17] > 100 µM | [18] 93.8 µM | [19] > 100 µM | [20] 64 µM | [21] 45.2 µM | [22] 58600 nM | [23] > 100000 nM | [24] 59800 nM | [25] 81.5 µM | [26] 60800 nM | [27] 58600 nM | [28] 42.7 µM | [29] > 100000 nM | [30] > 100 µM | [31] 55.6 µM | [32] > 100 µM | [59] 67.5 µM | [33] 73500 nM | [34] > 100000 nM | [35] 63.8 µM | [36] > 100 µM | [37] > 100 µM | [38] 88.3 µM | [39] 48.9 µM | [40] 21.6 µM | [41] > 100 µM | [42] 70.8 µM | [43] 8.38 µM | [44] > 100000 nM | [45] > 100000 nM | [46] 36300 nM | [47] 96.4 µM | [48] > 100 µM | [49] > 100 µM | [50] 74.5 µM | [51] 34100 nM | [52] > 100 µM | [53] 36.6 µM | [54] > 100 µM | [55] > 100 µM | [56] 89.1 µM | [57] 82 µM | [58] 66.7 µM

CC(C)=CCC/C(C)=C/CC/C(C)=C/CC/C(C)=C/CC/C(C)=C\CC/C(C)=C/CC/C(C)=C/CC/C(C)=C/Cc1cc(O)ccc1O
inactive: [1] 1.45 µM | [3] 1.33 µM | [4] 4.75 µM | [5] 1.98 µM | [9] 19.4 µM | [10] 2.31 µM | [11] 4.99 µM | [15] 6.03 µM | [16] 8.49 µM | [18] 3.33 µM | [20] 3.18 µM | [25] 20.6 µM | [28] 1.93 µM | [30] 2.02 µM | [32] 2.57 µM | [35] 1.32 µM | [36] 9.27 µM | [37] 1.15 µM | [41] 2.01 µM | [42] 1.45 µM | [43] 1.33 µM | [47] 4.06 µM | [48] 5.31 µM | [49] 10 µM | [50] 3.41 µM | [52] 2.28 µM | [53] 1.24 µM | [54] 1.41 µM | [55] 1.85 µM | [58] 1.72 µM
1690 nM: [13]
active: [2] 0.993 µM | [6] 0.239 µM | [7] 955 nM | [8] 0.387 µM | [12] 561 nM | [17] 1.11 µM | [19] 0.323 µM | [21] 0.632 µM | [22] 966 nM | [23] 213 nM | [24] 126 nM | [26] 390 nM | [27] 236 nM | [29] 292 nM | [31] 0.361 µM | [59] 0.505 µM | [33] 459 nM | [34] 573 nM | [38] 0.689 µM | [40] 0.344 µM | [44] 424 nM | [45] 682 nM | [46] 294 nM | [51] 430 nM | [56] 0.387 µM | [57] 0.157 µM

— ChEMBL document CHEMBL1201862, “PubChem BioAssay data set” (2004)
